Assay results published in US9315818B2, “Plant expression constructs and methods of utilizing same” (priority 2006, dated 2016).

Assays:
tomato plants = experiment: Vector replication, spread, reporter expression and symptoms in tomato plants (PCR, GUS staining); format: in vivo
Method: Propagation of the virus-plasmid vectors and their administration to plants—E. coli cells were transformed with IL-60 (SEQ ID NO: 2), IL-60-BS (SEQ ID NO: 1), IL-60-BS-GUS and IL-60-BS-GFP and propagated under ampicillin selection; the construct was extracted using standard procedures. IL-60-BS was administered directly into plants, without mediation by Agrobacterium. The stem, or leaf petiole, of the recipient plant was punctured by a hypodermic needle. A capillary tube was inserted into the resultant hole, and approximately 2 microgram of DNA (in 100 μl of 5 mM Tris-HCl; pH 8.5) were pipetted into the capillary tube until fully soaked by the plant. For large-scale applications, samples were delivered into plants by the BIM-LAB instrument (Bio-OZ biotechnologies, Yad Mordechai, Israel).
PCR analysis—PCR analysis was carried out according to standard procedures. DNA for PCR analysis was extracted as described in Bernatzky R. and Tanksley, S. D. [Theor. Appl. Genet. 72:314-321 (1986)], from leaves positioned at least 3 leaves above the point of administration. Tomato plants carry Geminivirus sequences in their genome [Ashby, M. K. et al., Plant Mol. Biol. 35, 313-321 (1997)]. Thus, it was also necessary to ascertain that PCR products were obtained from vector templates and not from native viral infection or plant sequences. Therefore, PCR tests were carried out with primers distinguishing IL-60 from TYLCV, or spanning the junction between IL-60 and the plasmid. • (i) primers distinguishing IL-60 from TYLCV; 977 (forward): gaa ggc tga act tcg aca g (SEQ ID NO: 16), 966 (reverse): att ggg ctg ttt cca tag ggc (SEQ ID NO: 17) • (ii) primers which amplify the junction between Bluescript and IL-60; 939 (forward) aga gac acc gat tca ttt caa c (SEQ ID NO: 18); 940 (reverse) gcg gat aac aat ttc aca cag (SEQ ID NO: 19).
In order to detect the presence of plasmids carrying reporter genes, PCR was performed with primers amplifying the reporter gene inserted into IL-60-BS. • iii) GUS specific primers: 408 (forward) gaa caa cga act gaa ctg gca gac (SEQ ID NO: 25); 167 (reverse) cag cgt aag ggt aat gcg ag (SEQ ID NO: 26). • iv) GFP specific primers: 895 (forward) ggc cga att cag taa agg aga ag (SEQ ID NO: 27); 345 (reverse) tgt gtg gac agg taa tgg (SEQ ID NO: 28).
TYLCV, IL-60, IL-60-BS and reporter gene derivative plasmids were either agroinoculated or injected into tomato plants and their replication and spread was monitored with symptom observation, PCR analysis and Southern blot. The expression of viral and reporter genes was assessed using PCR, Northern and Western analysis, GUS staining and GFP fluorescence as described above in methods and materials.

Bemisia tabaci = experiment: Transfer of IL-60-BS by Bemisia tabaci; format: in vivo; conditions: insects fed on IL-60-BS-carrying tomato plants, transferred to healthy tomato plants; PCR
Description: Assay for Transfer of IL-60-BS by Bemisia tabaci—Bemisia tabaci were allowed to feed on IL-60-BS-carrying tomato plants (15 insects per plant). Insects were then fed on sucrose and transferred to healthy tomato plants. DNA was extracted from both types of plants and used as a template for PCR using primers which amplify a sequence specific to IL-60 (e.g. SEQ ID NO: 16 and NO: 17) or other relevant primer pairs.
Wild TYLCV is transmitted by the whitefly, Bemisia tabaci. To test whether the viral vector is also transmitted through a viral natural transmitter, plants carrying the IL-60-BS vector were fed to B. tabaci.

plant genome = experiment: Southern blot for integration into the plant genome; format: in vivo, tomato; conditions: BglII-cleaved vs uncleaved DNA
Method: Molecular analysis—Southern analysis was carried out according to standard procedures (e.g as set forth in Sambrook, J. & Russel, D. W. Molecular Cloning, Third Edition. Cold Spring Harbor Laboratory Press, Cold Spring Harbor (2001)). Probes for Southern analysis were labeled by the PCR-DIG procedure (Roche Molecular Biochemicals, Basel, Switzerland). DIG labeled probes (TYLCV-CP—SEQ ID NO: 40) which hybridize with nucleotides 530-908 of the sequence identified by GenBank Accession No. X15656 were prepared according to the manufacturers protocol. Northern and Western analyses were carried out according to standard procedures. Probes for Northern analysis were labeled as described for the Southern blot analysis. Detection of GUS and GFP activities were performed according to published procedures [Jefferson, R. A., EMBO J. 6, 3901-3907 (1987); Blumenthal, A., Plant Science 142, 93-99 (1999)]. Chemiluminescent probes for Western blots were prepared with the SuperSignal West Pico kit (Pierce, Rockford, Ill., USA), using polyclonal antibodies against TYLCV-CP (Bioreba, Reinach, Switzerland) All probes were prepared according to the respective manufacturer's protocol. […]
Southern analysis was done without shearing, and with or without cleaving DNA with BglII. Two major bands were detected in samples from IL-60-BS, as well as TYLCV-infected plants (lanes 3-6, and lane 2 respectively of FIG. 3a). […]

several fungi = conditions: PRN spraying in field tests; U.S. Pat. No. 5,698,425; cited from earlier work

## IL-60-BS: IL-60 with Bluescript II-KS+ plasmid inserted, interrupting rep and C4 (SEQ ID NO: 1)
Tomato plants; direct injection
  efficiency of administration into plants: over 90%
Tomato plants; more than 64 injected tomato plants
  symptoms in injected plants: did not present any symptom
Tomato plants; tomato plants, PCR, duration of the plants life-span
  persistence of vector after injection: 12 months
Tomato plants; tomato plants, leaves remote from the point of injection
  vector found / replication indicated by PCR, time post injection: 3 days
Bemisia tabaci
  transmission of vector by insects to non-carrying plants: did not carry the IL-60-BS vector
Plant genome
  integration into the plant genome: had not been integrated into the plant's genome

## O=[N+]([O-])c1c(Cl)cccc1-c1c[nH]cc1Cl [PRN, Pyrrolnitrin]
Several fungi
  reduction in infectivity of several fungi: up to 8 fold

## IL-60: TYLCV-derived vector (SEQ ID NO: 2) with 60-nt coat protein deletion and frame shift
Tomato plants; tomato plants agroinoculated with the multimeric form, kept until fruit set
  infection after agroinoculation: systemic, but symptomless infection
